Residue numbers refer to the chain shown, from its start.
Assays:
Assay type in all cases: cell-based
TPα^S329,331A = target: T1, TPα^S329,331A (Homo sapiens, UniProt P21731, S329A/S331A); assay: Intracellular calcium mobilization, HEK.TPα^S329,331A cells; conditions: for Δ[Ca2+]i, U46619-induced: HEK.TPα^S329,331A
T1 construct: expressed in transfected cells
T1 sequence (P21731 1-343 S329A/S331A): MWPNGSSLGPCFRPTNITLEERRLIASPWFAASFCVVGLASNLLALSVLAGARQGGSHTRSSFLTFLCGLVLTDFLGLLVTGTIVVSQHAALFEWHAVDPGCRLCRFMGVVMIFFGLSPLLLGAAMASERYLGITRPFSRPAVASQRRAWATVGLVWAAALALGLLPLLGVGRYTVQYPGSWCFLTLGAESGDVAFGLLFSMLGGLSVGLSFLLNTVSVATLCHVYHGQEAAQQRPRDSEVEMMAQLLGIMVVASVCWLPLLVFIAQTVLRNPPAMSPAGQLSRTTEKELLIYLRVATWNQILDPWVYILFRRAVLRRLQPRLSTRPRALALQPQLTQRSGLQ
Protocol: (§1) Measurement of intracellular calcium mobilization ([Ca^2+]i) in FURA2/AM preloaded HEK 293 cell lines (2 × 10^6 cells/dish), each transiently co-transfected with pADVA (10 μg), and pCMV:Gαq (25 μg), was carried out as previously described. To investigate the effect of GRK2/βARK1 on TP-mediated [Ca^2+]i mobilization, HEK.TPα or HEK.TPβ cells (2 × 10^6 cells/dish) were co-transfected with pADVA (10 μg), pCMV:Gαq (25 μg) along with pRK5:βARK1^495–689 (25 μg), encoding a dominant negative form of GRK2/βARK1[39]. Approximately 48 h post-transfection, cells were harvested by scraping, washed twice in ice-cold PBS and resuspended in HBSSHB (modified Ca^2+/Mg^2+-free Hank's buffered salt solution, containing […], pH 7.67, 0.1% bovine serum albumin (BSA)) buffer at 10^7 cells/ml and incubated in the dark with 5 μM FURA2/AM for 45 min at 37 °C. […] For each measurement of [Ca^2+]i mobilization, aliquots of cells were diluted to 0.825 × 10^6 cells/ml in HBSSHB, 1 mM CaCl2 and FURA2 fluorescence was recorded (2 ml aliquots of cells) at 37^ °C with gentle stirring with a Perkin Elmer-Cetus LS50-B spectrofluorometer at excitation wavelengths of 340 nm and 380 nm and emission wavelength of 510 nm, respectively.
(§2) Cells were stimulated with the TP agonist U46619 (1 μM) and changes in [Ca^2+]i mobilization were monitored as a function of time. To assess agonist-mediated homologous desensitization, cells (0.825 × 10^6 cells/ml; 2 ml per assay) were stimulated with 1 μM U46619 (Primary stimulation) or, as a control, with the vehicle for 4 min; thereafter, cells were collected by centrifugation (900×g, 5 min); were washed twice in 2 ml HBSSHB, 1 mM CaCl2; and finally resuspended in 2 ml HBSSHB,1 mM CaCl2 and were left to recover over various time intervals (ranging from 0 to 60 min); thereafter, cells re-stimulated with 1 μM U46619 (Secondary stimulation) and changes in [Ca^2+]i mobilization were monitored as a function of time. […]

TPα^S331A = target: T2, TPα^S331A (Homo sapiens, UniProt P21731, S331A); assay: Intracellular calcium mobilization, HEK.TPα^S331A cells; conditions: for Δ[Ca2+]i, U46619-induced: HEK.TPα^S331A
T2 construct: expressed in transfected cells
T2 sequence (P21731 1-343 S331A): T1 sequence (P21731 1-343 S329A/S331A) with A329S
Protocol: as §1, §2

TPα^S331,T337,S340A = target: T3, TPα^S331,T337,S340A (Homo sapiens, UniProt P21731, S331A/S340A/T337A); assay: Intracellular calcium mobilization, HEK.TP^S331,T337,S340A cells; conditions: for Δ[Ca2+]i, U46619-induced: HEK.TP^S331,T337,S340A
T3 construct: expressed in transfected cells
T3 sequence (P21731 1-343 S331A/T337A/S340A): T1 sequence (P21731 1-343 S329A/S331A) with A329S, T337A, S340A
Protocol: as §1, §2

[1] = secondary 1 μM U46619 at 15 min

Which “Δ[Ca2+]i, U46619-induced” value (TPα^S329,331A; primary 1 μM U46619 4 min) does the source give for `CCCCC[C@H](O)/C=C/[C@@H]1[C@@H](C/C=C\CCCC(=O)O)[C@H]2CO[C@@H]1C2` [U46619] here?
The value was 176 ± 9.4 nM.

And the “Δ[Ca2+]i, U46619-induced” value (TPα^S329,331A; [1])?
The value was 63 ± 4.4 nM.

And the “secondary U46619 [Ca2+]i response relative to primary response” value (TPα^S329,331A; printed as TPα^S239,331A, Fig. 6A and B)?
The value was 36%.

What about the “Δ[Ca2+]i, U46619-induced” value (TPα^S331A; primary 1 μM U46619 4 min) of the same compound?
The value was 207 ± 9.1 nM.

And the “Δ[Ca2+]i, U46619-induced” value (TPα^S331A; [1])?
Its value is 80 ± 6.8 nM.

And the “secondary U46619 [Ca2+]i response relative to primary response” value (TPα^S331A; TPα^S331A)?
Its value is 39%.

What about the “Δ[Ca2+]i, U46619-induced” value (TPα^S331,T337,S340A; primary 1 μM U46619 4 min) of the same compound?
The value was 195 ± 12 nM.

And the “Δ[Ca2+]i, U46619-induced” value (TPα^S331,T337,S340A; [1])?
The value was 67 ± 8.2 nM.

And the “secondary U46619 [Ca2+]i response relative to primary response” value (TPα^S331,T337,S340A; TPα^S331,T337,S340A)?
Its value is about 34%.
